≈ marks a conversion by molar mass, not a printed value.
What was measured:
LEWIS lung carcinoma [1] = conditions: reported for the known agent, cited from earlier work
LEWIS lung carcinoma [2] = assay: Effect on LEWIS lung carcinoma in BDF1 mice; assay type: in vivo, mouse; conditions: for Reduction of tumor size / I.L.S.: intraperitoneally daily for 1-10 days; for I.L.S.: increase in life span; for Antitumor activity: against LEWIS lung carcinoma in mouse; for Life prolongation effects compared with BLM: mouse suffered from LEWIS lung carcinoma
Protocol: LEWIS lung carcinoma (1 mm^3) was transplanted subcutaneously into BDF1 mice. After 24 hours of the transplantation, AN-201(I), (II) and BLM were intraperitoneally injected daily for 1-10 days. Antitumor activity was indicated with a reduction in tumor size or with a increase in life span.

SV3T3 = assay: ED50 on SV-40-transformed 3T3 cells and selective cytotoxic effect; assay type: cell-based, mouse; conditions: for Cytotoxicity compared with BLM: 3T3 cell transformed with SV-40; for Selective cytotoxic effect (N/T ratio): ED50 of normal cell 3T3 to transformed cell SV3T3, 2880 min; for IC50: Mus musculus, SV3T3, 48 h, SV-40-transformed 3T3 cells, 2 days, read-out: ED50 SV3T3(T); for Antitumor activity (selective cytotoxicity): against 3T3 cell transformed with SV-40
Protocol: (§1) Normal cells, 3T3 and SV-40-transformed 3T3 cells, (SV3T3) were cultured in Eagle's minimal essential medium supplemented with 10% calf serum, 5 μg/ml of cefazoline and 100 μg/ml of streptomycin at the initial cell concentration of 4×10^4 cells/2 cm^2 for 3T3 and 2×10^4 cells/2 cm^2 for SV3T3 at 37° C. in 7% CO2 incubator. After one day of cultivation old medium was removed from tissue culture plate and various concentrations of drug diluted with new medium were added to the Falcon tissue culture plate. After 2 days of cultivation, the cell density was measured and the value of ED50 was determined. N/T ratio was calculated from ED50 value of normal cell, 3T3, to transformed cell, SV3T3.

ED50 on normal cells 3T3 = assay type: cell-based; conditions: mouse; normal 3T3 cells; 2 days; read-out: ED50 33T3(N)
Protocol: as §1

[3] = tested on: mouse fibroblast cell 3T3; assay: Number of injured cells, mouse fibroblast 3T3; assay type: cell-based; parameters: key: -: none of the cells injured; +: half of the cells injured; ++: about 2/3 of the cells injured; +++: almost all of the cells injured; conditions: 3 days
Protocol: (§2) MEM Uldecco powder (DAI-NIPPON SEIYAKU) (13.45 g) was dissolved in 1 l of distilled water and 2 ml of 7.5% NaHCO3 solution was added to the solution. Then the solution was filtered through a Millipore filter (pore size: 0.22μ) and supplemented with 100 ml of germ-free blood serum. Into a micro test plate (Falcon), 0.15 ml portions of the culture medium thus prepared were placed. Then a 0.05 ml culture sample of previously cultured mouse fibroblast cell 3T3 or mouse fibroblast cell 3T3 transformed with Semian virus-40 (SV 3T3) was inoculated into each portion of the culture medium. Thereafter, the inoculated media were incubated in a CO2 gas incubator (concentration of CO2 gas: 7.0%) at 37° C. for 24 hours. Into the media AN-201(I) or (II) was added to contain 20 μg/ml, 40 μg/ml, 50 μg/ml or 60 μg/ml, and additional cultivation was carried out for 3 days. Number of injured cell in each medium was counted with an invert microscope using a Thama hematometer.

[4] = tested on: mouse fibroblast cell 3T3 transformed with Semian virus-40 (SV 3T3); assay: Number of injured cells, SV 3T3 (transformed with Semian virus-40); assay type: cell-based; parameters: key: -: none of the cells injured; +: half of the cells injured; ++: about 2/3 of the cells injured; +++: almost all of the cells injured; conditions: 3 days
Protocol: as §2

[5] = tested on: mouse leukemia L 1210 cells; assay: Effect on L 1210 cell (relative multiplication number); assay type: cell-based; conditions: L1210, 120 h, 5 days, 0 μg/ml = 100; for activity at 10 µg/mL: 10 μg/ml; for activity at 20 µg/mL: 20 μg/ml; for activity at 40 µg/mL: 40 μg/ml; for activity at 50 µg/mL: 50 μg/ml; for activity at 60 µg/mL: 60 μg/ml
Protocol: A 10.28 g sample of RPMI 1640 powder medium (DAI-NIPPON SEIYAKU) was dissolved into 1.0 liter distilled water and 1.0 g NaHCO3 was added to it. Then the solution was filtered through a Millipore filter (pore size: 0.22μ) and supplemented with 100 ml of germ-free blood serum. One ml portions of the culture medium thus prepared were placed into Falcon Multi Well aseptically. Then a 0.05 ml culture sample of mouse leukemia L 1210 cells previously cultured was inoculated into each batch of the culture medium, and a definite amount of purified AN-201(I) or (II) dissolved in the same medium was added simultaneously to the culture medium. Thereafter, the inoculated media were incubated in a CO2 gas incubator (concentration of CO2 gas: 7.0%) at […]. After 5 days incubation, the numbers of multiplied cells were counted under a microscope and the relative multiplication numbers obtained are shown in Table 4.

[6] = tested on: Escherichia coli K-12 ATCC 10798; assay: Antimicrobial activity (MIC), broth culture; assay type: cell-based; conditions: ATCC10798, 37° C., 20 hours
Protocol: (§3) Two ml portions of M3 -Medium (Bactoantibiotic Medium--Difico, 1.75%, pH 7.2) were placed into test tubes and heated at 120° C. for 10 minutes. Each test strain in Table 1 was inoculated into a batch of culture medium, and the inoculated batches were cultured with shaking at 30° C. for 20 hours to obtain seed culture broths. A 0.05 ml sample of each culture broth was inoculated into 20 ml of M3 -Medium containing […] or (II). The inoculates were cultured at 37° C. for 20 hours with shaking. Thereafter, the optical density of each resultant culture broth at 660 nm was determined, and the minimum inhibition concentration (MIC) of each broth was calculated, and is shown in Table 1.

[7] = tested on: Bacillus subtilis ATCC 6633; assay: Antimicrobial activity (MIC), broth culture; assay type: cell-based; conditions: for MIC: ATCC6633, Bacillus subtilis ATCC 6633, 37° C., 20 hours; for Antimicrobial activity: against Bacillus subtilis ATCC 6633
Protocol: as §3

Sarcina lutia ATCC 93412 = assay: Antimicrobial activity (MIC), broth culture; assay type: cell-based; conditions: for MIC: Sarcina, ATCC93412, 20 h; for Antimicrobial activity: against Sarchina lutea ATCC 9341
Protocol: as §3

[8] = tested on: Pseudomonas aeruginosa ATCC 10145; assay: Antimicrobial activity (MIC), broth culture; assay type: cell-based; conditions: ATCC10145, 37° C., 20 hours
Protocol: as §3

[9] = tested on: Staphylococcus aureus FDA 209 P; assay: Antimicrobial activity (MIC), broth culture; assay type: cell-based; conditions: for MIC: FDA209, Staphylococcus aureus FDA 209 P, 37° C., 20 hours; for Antimicrobial activity: against Streptococcus aureus FDA 209P
Protocol: as §3

Escherichia coli MP-2 = assay: Antimicrobial activity (MIC), broth culture; assay type: cell-based; conditions: MP2, 37° C., 20 hours
Protocol: AN-201(I) and (II) can be assayed by determining anti-microbial activity to E. coli MP-2 (FERM-P 5432) (Agric. Biol. Chem., 43, 371, (1979)), which has permeability for high molecular compounds.
as §3

Row | Molecule | Cytotoxicity compared with BLM (SV3T3) | Selective cytotoxic effect (N/T ratio) (SV3T3) | IC50 (SV3T3) [µg/mL] | Antitumor activity (selective cytotoxicity) (SV3T3) | CC50 at 48 h (ED50 on normal cells 3T3) [µg/mL] | Number of Injured Cell ([3]; 20 μg/ml) | Number of Injured Cell ([3]; 40 μg/ml) | Number of Injured Cell ([3]; 50 μg/ml) | Number of Injured Cell ([3]; 60 μg/ml) | Number of Injured Cell ([4]; 20 μg/ml) | Number of Injured Cell ([4]; 40 μg/ml) | Number of Injured Cell ([4]; 50 μg/ml) | Number of Injured Cell ([4]; 60 μg/ml) | activity at 10 µg/mL [5] [%] | activity at 20 µg/mL [5] [%] | activity at 40 µg/mL [5] [%] | activity at 50 µg/mL [5] [%] | activity at 60 µg/mL [5] [%] | MIC [6] [µg/mL] | MIC [7] [µg/mL] | also measured
1 | bleomycin [BLM, reference compound] |  |  |  |  |  |  |  |  |  |  |  |  |  |  |  |  |  |  |  |  | Antitumor activity (reported) (LEWIS lung carcinoma [1]; LEWIS lung carcinoma in mouse): notable antitumor activity; Chemotherapeutic coefficient (reported) (LEWIS lung carcinoma [1]): very high; Reduction of tumor size (LEWIS lung carcinoma [2]; 5 mg/kg): 52-60%; Reduction of tumor size (LEWIS lung carcinoma [2]; 10 mg/kg): 65-80%; I.L.S. (LEWIS lung carcinoma [2]; 5 mg/kg): 100-110%; I.L.S. (LEWIS lung carcinoma [2]; 10 mg/kg): 119-124%
2 | CC(=O)NC(CCCNC(=O)CC(N)CCCN)CC(=O)NC1C(N=C2NC3C(=O)NCC(O)C3N2)OC(CO)C(OC(N)=O)C1O (centres unmarked) [AN-201(I)] | more strongly and selectively cytotoxic | 2.2 | 25 (≈ 37.2 µM) | cytotoxic selectively | 55 (≈ 81.8 µM) | - | - | + | ++ | - | + | +++ | +++ | 100 | 80 | 30 | 0 | 0 | > 50 | 2.7 (≈ 4.01 µM) | Antimicrobial activity [7]: positive; MIC (Sarcina lutia ATCC 93412): 5 µg/mL (≈ 7.43 µM); Antimicrobial activity (Sarcina lutia ATCC 93412): positive; MIC [8]: > 50 µg/mL; MIC [9]: 2 µg/mL (≈ 2.97 µM); Antimicrobial activity [9]: positive; Reduction of tumor size (LEWIS lung carcinoma [2]; 9 mg/kg): 45-50%; Reduction of tumor size (LEWIS lung carcinoma [2]; 18 mg/kg): 50-65%; Antitumor activity (LEWIS lung carcinoma [2]): positive; I.L.S. (LEWIS lung carcinoma [2]; 9 mg/kg): 114-120%; I.L.S. (LEWIS lung carcinoma [2]; 18 mg/kg): 120-125%; Life prolongation effects compared with BLM (LEWIS lung carcinoma [2]): greater life prolongation effects; MIC (Escherichia coli MP-2): 20 µg/mL (≈ 29.7 µM)
3 | CC(=O)NC(CCCNC(=O)CC(N)CCCNC(=O)CC(N)CCCN)CC(=O)NC1C(N=C2NC3C(=O)NCC(O)C3N2)OC(CO)C(OC(N)=O)C1O (centres unmarked) [AN-201(II)] | more strongly and selectively cytotoxic | 3.3 | 15 (≈ 18.7 µM) | cytotoxic selectively | 50 (≈ 62.4 µM) | - | - | + | ++ | - | + | +++ | +++ | 100 | 80 | 25 | 0 | 0 | > 50 | 1.5 (≈ 1.87 µM) | Antimicrobial activity [7]: positive; MIC (Sarcina lutia ATCC 93412): 5 µg/mL (≈ 6.24 µM); Antimicrobial activity (Sarcina lutia ATCC 93412): positive; MIC [8]: > 50 µg/mL; MIC [9]: 2 µg/mL (≈ 2.5 µM); Antimicrobial activity [9]: positive; Reduction of tumor size (LEWIS lung carcinoma [2]; 1 mg/kg): 50-57%; Reduction of tumor size (LEWIS lung carcinoma [2]; 3 mg/kg): 54-60%; Reduction of tumor size (LEWIS lung carcinoma [2]; 9 mg/kg): 74-85%; Antitumor activity (LEWIS lung carcinoma [2]): positive; I.L.S. (LEWIS lung carcinoma [2]; 1 mg/kg): 101-110%; I.L.S. (LEWIS lung carcinoma [2]; 3 mg/kg): 121-130%; I.L.S. (LEWIS lung carcinoma [2]; 9 mg/kg): 124-135%; Life prolongation effects compared with BLM (LEWIS lung carcinoma [2]): greater life prolongation effects; MIC (Escherichia coli MP-2): 4 µg/mL (≈ 4.99 µM)
